Legend:
Format in all cases: ADME, organism-based
[1] = Drug metabolism in human slow inactivators assessed as excretion of isonicotinuric acid in urine at 1 g, iv by colorimetry; settings: in vivo
[2] = Drug excretion in human subject rapid inactivator assessed as total isonicotinoyl compound level in urine at 670 mg, iv infused at constant rate 5.2min measured 486 mins after start of drug injection by colorimetry; settings: in vivo, 8.1 h
[3] = Drug excretion in human subject rapid inactivator assessed as total isonicotinoyl compound level in urine at 670 mg, iv infused at constant rate 5.2min measured 516 mins after start of drug injection by colorimetry; settings: in vivo
[4] = Drug excretion in human subject slow inactivator assessed as sum of isoniazid plus hydrazones, acetylisoniazid, isonicotinic acid and isonicotinuric acid level in urine at 681 mg, iv infused at constant rate 5.4 min measured 370.3 mins after start of drug injection by colorimetry; settings: in vivo, 6.17167 h
[5] = Drug excretion in human subject slow inactivator assessed as sum of isoniazid plus hydrazones, acetylisoniazid, isonicotinic acid and isonicotinuric acid level in urine at 681 mg, iv infused at constant rate 5.4 min measured 430.2 mins after start of drug injection by colorimetry; settings: in vivo, 7.17 h
[6] = Drug excretion in human subject slow inactivator assessed as sum of isoniazid plus hydrazones, acetylisoniazid, isonicotinic acid and isonicotinuric acid level in urine at 681 mg, iv infused at constant rate 5.4 min measured 496 mins after start of drug injection by colorimetry; settings: in vivo
[7] = Drug excretion in human subject slow inactivator assessed as sum of isoniazid plus hydrazones, acetylisoniazid, isonicotinic acid and isonicotinuric acid level in urine at 681 mg, iv infused at constant rate 5.4 min measured 586 mins after start of drug injection by colorimetry; settings: in vivo
[8] = Drug excretion in human subject slow inactivator assessed as sum of isoniazid plus hydrazones, acetylisoniazid, isonicotinic acid and isonicotinuric acid level in urine at 681 mg, iv infused at constant rate 5.4 min measured 648 mins after start of drug injection by colorimetry; settings: in vivo
[9] = Drug excretion in human subject slow inactivator assessed as sum of isoniazid plus hydrazones, acetylisoniazid, isonicotinic acid and isonicotinuric acid level in urine at 681 mg, iv infused at constant rate 5.4 min measured 677 mins after start of drug injection by colorimetry; settings: in vivo
[10] = Drug excretion in human subject slow inactivator assessed as sum of isoniazid plus hydrazones, acetylisoniazid, isonicotinic acid and isonicotinuric acid level in urine at 681 mg, iv infused at constant rate 5.4 min measured 710 mins after start of drug injection by colorimetry; settings: in vivo
[11] = Drug excretion in human subject slow inactivator assessed as total isonicotinoyl compound level in urine at 681 mg, iv infused at constant rate 5.4 min measured 35.5 mins after start of drug injection by colorimetry; settings: in vivo
[12] = Drug excretion in human subject slow inactivator assessed as total isonicotinoyl compound level in urine at 681 mg, iv infused at constant rate 5.4 min measured 59.1 mins after start of drug injection by colorimetry; settings: in vivo, 0.985 h
[13] = Drug excretion in human subject slow inactivator assessed as total isonicotinoyl compound level in urine at 681 mg, iv infused at constant rate 5.4 min measured 208.7 mins after start of drug injection by colorimetry; settings: in vivo, 3.47833 h
[14] = Drug excretion in human subject slow inactivator assessed as total isonicotinoyl compound level in urine at 681 mg, iv infused at constant rate 5.4 min measured 466 mins after start of drug injection by colorimetry; settings: in vivo
[15] = Drug excretion in human subject slow inactivator assessed as total isonicotinoyl compound level in urine at 681 mg, iv infused at constant rate 5.4 min measured 524 mins after start of drug injection by colorimetry; settings: in vivo
[16] = Drug excretion in human rapid inactivators urine assessed as isonicotinuric acid level at 1 g, iv by colorimetry; settings: in vivo
[17] = Drug excretion in human rapid inactivators urine assessed as total isonicotinoyl compounds at 1 g, iv by colorimetry; settings: in vivo
[18] = Drug excretion in human slow inactivators urine assessed as isoniazid plus hydrazones level at 1 g, iv by colorimetry; settings: in vivo
[19] = Drug excretion in human slow inactivators urine assessed as acetylisoniazid level at 1 g, iv by colorimetry; settings: in vivo
[20] = Drug excretion in human slow inactivators urine assessed as total isonicotinoyl compounds at 1 g, iv by colorimetry; settings: in vivo
[21] = Drug excretion in human rapid inactivators urine at 1 g, iv by colorimetry; settings: in vivo
[22] = Drug metabolism in human rapid inactivators assessed as excretion of pyruvic acid isonicotinoylhydrazone in urine at 1 g, iv by colorimetry; settings: in vivo
[23] = Drug metabolism in human rapid inactivators assessed as excretion of alpha-ketoglutaric acid isonicotinoylhydrazone in urine at 1 g, iv by colorimetry; settings: in vivo
[24] = Drug metabolism in human rapid inactivators assessed as excretion of acetylisoniazid in urine at 1 g, iv by colorimetry; settings: in vivo
[25] = Drug excretion in human subject rapid inactivator assessed as sum of isoniazid plus hydrazones, acetylisoniazid, isonicotinic acid and isonicotinuric acid level in urine at 670 mg, iv infused at constant rate 5.2min measured 32 mins after start of drug injection by colorimetry; settings: in vivo
[26] = Drug excretion in human subject rapid inactivator assessed as sum of isoniazid plus hydrazones, acetylisoniazid, isonicotinic acid and isonicotinuric acid level in urine at 670 mg, iv infused at constant rate 5.2min measured 94 mins after start of drug injection by colorimetry; settings: in vivo
[27] = Drug excretion in human subject rapid inactivator assessed as sum of isoniazid plus hydrazones, acetylisoniazid, isonicotinic acid and isonicotinuric acid level in urine at 670 mg, iv infused at constant rate 5.2min measured 296 mins after start of drug injection by colorimetry; settings: in vivo
[28] = Drug excretion in human subject rapid inactivator assessed as sum of isoniazid plus hydrazones, acetylisoniazid, isonicotinic acid and isonicotinuric acid level in urine at 670 mg, iv infused at constant rate 5.2min measured 373 mins after start of drug injection by colorimetry; settings: in vivo
[29] = Drug excretion in human subject rapid inactivator assessed as total isonicotinoyl compound level in urine at 670 mg, iv infused at constant rate 5.2min measured 158 mins after start of drug injection by colorimetry; settings: in vivo
[30] = Drug excretion in human subject rapid inactivator assessed as total isonicotinoyl compound level in urine at 670 mg, iv infused at constant rate 5.2min measured 195 mins after start of drug injection by colorimetry; settings: in vivo, 3.25 h
[31] = Drug excretion in human subject rapid inactivator assessed as total isonicotinoyl compound level in urine at 670 mg, iv infused at constant rate 5.2min measured 296 mins after start of drug injection by colorimetry; settings: in vivo
[32] = Drug excretion in human subject rapid inactivator assessed as total isonicotinoyl compound level in urine at 670 mg, iv infused at constant rate 5.2min measured 373 mins after start of drug injection by colorimetry; settings: in vivo
[33] = Drug excretion in human subject rapid inactivator assessed as total isonicotinoyl compound level in urine at 670 mg, iv infused at constant rate 5.2min measured 400 mins after start of drug injection by colorimetry; settings: in vivo
[34] = Drug excretion in human subject rapid inactivator assessed as total isonicotinoyl compound level in urine at 670 mg, iv infused at constant rate 5.2min measured 426 mins after start of drug injection by colorimetry; settings: in vivo, 7.1 h

Drug metabolism [1]: 14.2 %molar | Drug excretion [2]: 12.5 mg | Drug excretion [3]: 17 mg | Drug excretion [4]: 26.76 mg | Drug excretion [5]: 21.24 mg | Drug excretion [6]: 14.26 mg | Drug excretion [7]: 13.18 mg | Drug excretion [8]: 12.82 mg | Drug excretion [9]: 11.396 mg | Drug excretion [10]: 10.68 mg | Drug excretion [11]: 50.1 mg | Drug excretion [12]: 33.7 mg | Drug excretion [13]: 27.1 mg | Drug excretion [14]: 20 mg | Drug excretion [15]: 10.4 mg | Drug excretion [16]: 101% | Drug excretion [17]: 98.8% | Drug excretion [18]: 98% | Drug excretion [19]: 97% | Drug excretion [20]: 98.8% | Drug excretion [21]: 3.6 %molar | Drug metabolism [22]: 2.9 %molar | Drug metabolism [23]: 1.4 %molar | Drug metabolism [24]: 43.8 %molar | Drug excretion [25]: 42.1 mg | Drug excretion [26]: 48.1 mg | Drug excretion [27]: 39.4 mg | Drug excretion [28]: 28 mg | Drug excretion [29]: 51.7 mg | Drug excretion [30]: 59.9 mg | Drug excretion [31]: 42.1 mg | Drug excretion [32]: 28.7 mg | Drug excretion [33]: 18.5 mg | Drug excretion [34]: 17.1 mg
SMILES: NNC(=O)c1ccncc1 [ISONIAZID]
